The source of these data is US20090317461A1, “ORAL COMPOSITIONS EFFECTIVE FOR THE TREATMENT OF ORAL CAVITY MALODOR ASSOCIATED WITH THE CONSUMPTION OF ODOR-CAUSING COMPOUNDS” (Wm. Wrigley Jr. Company, priority 2006, published 2009).

Test [1] in a line: Menthol treatment of garlic model solution, TIC chromatogram peak area (Example 47). On the procedure: The following example details testing of menthol for treatment of solutions with characteristic garlic aroma. Model solutions containing raw chopped garlic dispersed in water were prepared as described in Example 1. Portions of model solution (2.5 g) were treated with menthol in varying amounts (0.5 mg, 1.0 mg, and 1.5 mg).

Test [2] in a line: Sensory analysis: ten panelists rate odor intensity of raw macerated garlic solution with and without active. Particulars: for reduction of odor (intensity) of raw macerated garlic in water: sensory panel; for Odor Intensity (0-100), Mean: N = 10 panelists. On the procedure: Sensory analysis of the solutions utilized for analytical analyses of the raw garlic described above was conducted by ten panelists who evaluated the odor intensity of the model solution (raw macerated garlic) with and without the different levels of added active. Odor intensity was assessed utilizing a 0-100 point scale ballot with 0=no odor and 100=very strong odor.

Test [3] is described as follows: Headspace diallyl disulfide of garlic model solution treated with menthone, GC/MS at 5 hour intervals (Example 3). The settings on record: menthone 1.63 mg in 2.5 g model solution; at each headspace analysis interval (5 hour intervals). The procedure: A model solution containing raw chopped garlic dispersed in water was prepared as described in Example 1. […] For comparison purposes, the diallyl disulfide content of the headspace of a control model solution (i.e., no menthone added) was also analyzed.

`CC1CCC(C(C)C)C(O)C1` (stereo not drawn) [menthol]: the “reduction in odor-causing compounds” value in test [1] (0.5 mg in 2.5 g model solution) is “approximately 43%”; in test [1] (1 mg in 2.5 g model solution), “approximately 51%”; in test [1] (1.5 mg in 2.5 g model solution), “approximately 60%”.
Regarding `CC(C)[C@@H]1CC[C@@H](C)CC1=O` [menthone], the “reduction of odor (intensity) of raw macerated garlic in water” value in test [2] (active concentration 0.3 mg/g) was determined as 48%; in test [2] (active concentration 3 mg/g) it was 80%. Further, the “Odor Intensity (0-100), Mean” value was found to be 5.2 in test [2] (menthone 0.33 mg/g), 2.7 in test [2] (menthone 1 mg/g) and 2 in test [2] (menthone 3 mg/g). For the same compound, the “less diallyl disulfide in headspace than control model solution” value in test [3] is “at least 50%”.
